Measurements reported in patent US4740499A, “Method of enhancing the bioactivity of atrial peptides” (Monsanto Company, priority 1986, dated 1988).
Where a SMILES comes first, the peptide text is derived from it. Bridges are numbered along the chain shown (N, C = ends).

How the values were obtained:
[1] = system: rabbit kidney brush border membranes (RBBM); test: physchem; format: biochemical; conditions: for Effect of inhibitor on atrial peptide bioactivity during incubation with renal brush border membranes: nanomolar (low) concentrations of inhibitor
Procedure: (§1) The kelatorphan was prepared according to the method described for compound 13 by Fournie-Saluski et al., J. Med. Chem. 28, 1158-1169 (1985). The following procedure was performed at 4° C. Rabbit kidneys were obtained fresh and were perfused with buffer A (containing 5 mM Tris, pH 7.5, 0.25 M sucrose, 3 mM MgCl2 and 1 mM EDTA) to remove the blood. (EDTA=ethylenediaminetetraacetic acid.) The kidneys were minced, homogenized in 5 volumes of ice-cold buffer A with a Brinkmann Polytron homogenizer and filtered through two layers of cheesecloth. The filtrate was centrifuged at 5,000×g for 20 min, the pellet was discarded and the supernatant was centrifuged at 15,000×g for 20 min. The supernatant was retained and then centrifuged at 100,000×g for 90 min. The pellet was resuspended in 50 mM Tris, pH 7.5, and the suspension was centrifuged at 100,000×g for 90 min. The washed pellet was resuspended in 50 mM Tris, pH 7.5, to give a final protein concentration of 4 mg/ml using the protein assay of Bradford, Anal. Biochem. 72, 248-254 (1976). The membrane preparation was assayed for aminopeptidase and alkaline phosphatase activities which are the marker enzymes for the kidney brush border. See Inui et al., Biochim. Biophys. Acta 647, 150-154 (1981). The final membrane preparation was enriched 8-fold in alkaline phosphatase activity, and 11-fold in aminopeptidase activity, compared to the homogenate. Renal brush border membranes (10-20 μg) were preincubated for 15 min at 25° C. in a solution containing the inhibitor and 50 mM Tris, pH 7.5. […] Incubations were for 60 min at 25° C. and were terminated by removing the membranes by filtration using Gelman GA-6 filters. The filtrates were immediately frozen on dry ice and were stable for 1 week when stored at -80° C. Samples containing the peptide degradation products were resolved by C18 reversed phase high pressure liquid chromatography (HPLC). The frozen samples were thawed immediately before injection onto a Vydac C18 column (4.6 mm I.D.×25 cm; 5 micron/300 Å) equilibrated with water containing 0.05% trifluoracetic acid (TFA). Peptide fragments and starting material were separated on a linear gradient of 0-35% acetonitrile also containing 0.05% TFA. Both the gradient and the flow rate (1 ml/min) were maintained by a Waters HPLC system consisting of two Model 510 pumps connected to an Automated Gradient Controller. Column effluent was monitored at 220 nm by a Waters Model 481 spectrophotometer, and the amount of atrial peptide material and peptide fragments were measured via a Hewlett-Packard Model […] integrator. […] Therefore, in those cases where the N-terminal serine was removed, the total amount of biologically active material remaining at the end of the incubation was taken as the % starting material remaining plus % des […] -AP-I or des […] -AP-III (as appropriate), as calculated from the peak areas of the individual peptides on HPLC.

physchem = format: biochemical, rabbit; conditions: pH 7.5, Peak area as % Initial AP: AP
Procedure: as §1

[2] = Plasma AP-III levels (radioimmunoassay) in rats, first test: constant AP-III infusion, varied thiorphan dose; format: in vivo, rat; conditions: male, Sprague-Dawley, rat, in vivo, iv
Procedure: (§2) Plasma levels of atriopeptin III (AP-III) were tested in rats in which the AP-III was infused intravenously both with and without contemporaneous administration of thiorphan.
(§3) Male Sprague-Dawley rats, 240-310 g, were used for all tests. The rats were housed in the test facilities for at least 6 days before they were used.
(§4) Cannulas were made of PE-10 (polyethylene) tubing inserted and glued into a piece of PE-50 tubing. Rats were anesthetized with pentobarbital (50 mg/kg i.p.) and had cannulas inserted into the left femoral vein and artery. Both were inserted four cm into the vessels and tied securely. They were then tunnelled under the skin and brought out between the rat's shoulder blades and then cut so that only 1-2 cm was externalized. Cannulas were glued in place using Superglue and filled with saline containing 100 units heparin/ml. Rats were allowed to wake up and then housed individually with food and water ad libitum.
(§5) Two days after surgery, the rats were weighed and put into restraining cages that allowed limited movement. […] Blood was collected from the femoral artery and replaced with saline containing 10 units heparin/ml. In most tests, 0.3 ml blood was taken, except that when basal AP-III levels were measured 0.4 ml blood was withdrawn. Blood was immediately centrifuged in a microcentrifuge for one minute and plasma was frozen in plastic tubes placed on dry ice. Samples were kept in a -80° C. freezer until they were analyzed.
(§6) Thiorphan was dissolved in a minimal amount of 0.1 N NaOH to produce the sodium salt. The solution was immediately neutralized using 0.5 N HCl and diluted to a final concentration with 0.9% saline.
After taking the second sample, thiorphan was given as a bolus injection into the femoral artery and the line was flushed with 0.2 ml saline. The doses of thiorphan were 1,3,10 and 30 mg/kg; one set of rats received only a saline bolus as a control. Blood was taken 10,20,30 and 60 minutes after the injection of thiorphan. AP-III was infused during the entire experiment for a total of 90 minutes.
(§7) Plasma AP-III levels were analyzed by radioimmunoassay using a second antibody to separate free and bound AP-III. The label was ^125 I-AP-III that was purified by HPLC after iodination. Conditions were set so that 35-40% of the total counts were precipitated. The incubation medium contained sodium phosphate, pH 7.4, 0.25% bovine serum albumin (BSA), 0.5% sodium azide and 3% PEG-8000 (polyethylene glycol). The primary antibody was from a guinea pig immunized against AP-III. The incubations were done overnight at 6° C. The next day, 2 ml of 0.125% BSA was added to each tube and then they were centrifuged for 45 min at 3000 rpm. They were decanted and the radioactivity was counted in a Micromedic gamma counter. The standard curve contained 10 to 600 pg AP-III/tube. Only the linear portion of the curve was used for quantification. Plasma samples were diluted so that the AP-III concentrations were in the range of the standard curve.

[3] = Plasma AP-III levels (radioimmunoassay) in rats, second test: varied AP-III infusion rate, constant thiorphan dose; format: in vivo, rat; conditions: male, Sprague-Dawley, rat, in vivo, iv
Procedure: as §2, §3, §4, §5, §6
In the second test, the level of thiorphan was kept constant at 3 mg/kg and the rate of AP-III infusion was varied. AP-III was infused into the femoral vein for a total of 60 minutes at a rate of 150,450 and 900 ng/kg/min; another group of rats received only an infusion of dextrose/saline to determine if thiorphan affected the basal levels of AP-III. Blood was taken at 15 and 30 minutes after the start of the AP-III infusion to check for a steady state AP-III plasma concentration. After the 30 min sample, thiorphan (3 mg/kg) was injected arterially and additional blood samples were taken 15 and 30 min later (45 and 60 minutes after the start of the AP-III infusion).
as §7

[4] = (c) 40 μM AP-III, 20 μg RBBM, 100 nM inhibitor, 60 min, 25° C.
[5] = rabbit, kidney or brush border membranes

For `C[C@H](NC(=O)[C@@H](CC(=O)NO)Cc1ccccc1)C(=O)O` [(R,S) kelatorphan], the “Peak area as % Initial AP: AP” value [1, 4] was 16.5%, the “Peak area as % Initial AP: AP + des Ser^1 -AP” value [1, 4] was 31.4% and the “Peak area as % Initial AP: des Ser^1 -AP” value [1, 4] was 14.9%. For the same compound, the “Effect of inhibitor on atrial peptide bioactivity during incubation with renal brush border membranes” value (shortened to “Effect of inhibitor”) [1] was “inhibit the loss of atrial peptide bioactivity”.
With `C[C@H](NC(=O)[C@H](CC(=O)NO)Cc1ccccc1)C(=O)O` [(S,S) kelatorphan] the “Peak area as % Initial AP: AP” value [1, 4] was 17.2%, the “Peak area as % Initial AP: AP + des Ser^1 -AP” value [1, 4] was 49.3% and the “Peak area as % Initial AP: des Ser^1 -AP” value [1, 4] was 32.1%. For the same compound, the “Effect of inhibitor” value [1] was “inhibit the loss of atrial peptide bioactivity”.
For `CC[C@H](C)[C@@H]1NC(=O)[C@H](CCCN=C(N)N)NC(=O)[C@H](CC(=O)O)NC(=O)[C@H]([C@@H](C)CC)NC(=O)[C@H](CCCN=C(N)N)NC(=O)CNC(=O)CNC(=O)[C@H](Cc2ccccc2)NC(=O)[C@@H](NC(=O)[C@H](CO)NC(=O)[C@@H](N)CO)CSSC[C@@H](C(=O)N[C@@H](CC(N)=O)C(=O)N[C@@H](CO)C(=O)N[C@@H](Cc2ccccc2)C(=O)N[C@@H](CCCN=C(N)N)C(=O)N[C@@H](Cc2ccc(O)cc2)C(=O)O)NC(=O)CNC(=O)[C@H](CC(C)C)NC(=O)CNC(=O)[C@H](CO)NC(=O)[C@H](CCC(N)=O)NC(=O)[C@H](C)NC(=O)CNC1=O` [AP-III] (H-SSCFGGRIDRIGAQSGLGCNSFRY-OH; disulfide 3-19), the remaining at 1 h, 40 μM (physchem; buffer or solvent) was 100%, the remaining at 1 h, 40 μM (physchem; [5]) was 3.3% and the “Peak area as % Initial AP: AP” value ([1]; rabbit, kidney or brush border membranes, 1 h, 40 μM, pH 7.5) was 2.1%. For the same compound, the “Plasma AP-III concentration, stable level during infusion” value ([2]; 833 ng/kg/min) was 9 to 11 ng/mL, the “Plasma AP-III levels, constant level in control rats” value ([2]; 833 ng/kg/min) was 11 to 12 ng/mL and the level at 20 min ([2]; 833 ng/kg/min) was 9.6 ± 1.6 ng/mL. It also gave a level at 0.5 h ([2]; 833 ng/kg/min) of 10.8 ± 1.1 ng/mL, a level at 40 min ([2]; 833 ng/kg/min) of 11.2 ± 1.3 ng/mL and a level at 50 min ([2]; 833 ng/kg/min) of 11.3 ± 1.1 ng/mL. The level at 1 h ([2]; 833 ng/kg/min) was 11.7 ± 0.7 ng/mL, the level at 1.5 h ([2]; 833 ng/kg/min) was 10.6 ± 1.4 ng/mL and the level at 20 min ([2]; 1 mg/kg) was 9.2 ± 2.4 ng/mL. The level at 0.5 h ([2]; 1 mg/kg) was 9.7 ± 1 ng/mL, the level at 20 min ([2]; 3 mg/kg) was 10.1 ± 1.6 ng/mL and the level at 0.5 h ([2]; 3 mg/kg) was 11 ± 1.1 ng/mL. The level at 20 min ([2]; 10 mg/kg) was 9.7 ± 2.4 ng/mL, the level at 0.5 h ([2]; 10 mg/kg) was 10.6 ± 2.9 ng/mL and the level at 20 min ([2]; 30 mg/kg) was 9.2 ± 1.1 ng/mL. It also gave a level at 0.5 h ([2]; 30 mg/kg) of 8.8 ± 1 ng/mL, a level at 0.25 h ([3]; 150 ng/kg/min) of 0.9 ± 0.2 ng/mL and a level at 0.5 h ([3]; 150 ng/kg/min) of 1 ± 0.6 ng/mL. It also gave a level at 0.25 h ([3]; 450 ng/kg/min) of 4.2 ± 1 ng/mL, a level at 0.5 h ([3]; 450 ng/kg/min) of 4.5 ± 1.2 ng/mL and a level at 0.25 h ([3]; 900 ng/kg/min) of 11.2 ± 3.5 ng/mL. The level at 0.5 h ([3]; 900 ng/kg/min) was 13.6 ± 1.8 ng/mL.
In the case of `CC[C@H](C)[C@@H]1NC(=O)[C@H](CCCN=C(N)N)NC(=O)[C@H](CC(=O)O)NC(=O)[C@H]([C@@H](C)CC)NC(=O)[C@H](CCCN=C(N)N)NC(=O)CNC(=O)CNC(=O)[C@H](Cc2ccccc2)NC(=O)[C@@H](NC(=O)[C@H](CO)NC(=O)[C@@H](N)CO)CSSC[C@@H](C(=O)N[C@@H](CC(N)=O)C(=O)N[C@@H](CO)C(=O)O)NC(=O)CNC(=O)[C@H](CC(C)C)NC(=O)CNC(=O)[C@H](CO)NC(=O)[C@H](CCC(N)=O)NC(=O)[C@H](C)NC(=O)CNC1=O` [AP-I] (H-SSCFGGRIDRIGAQSGLGCNS-OH; disulfide 3-19), the remaining at 1 h, 40 μM (physchem; buffer or solvent) is reported as 100% and the “Degradation of atrial peptide by proteolytic activity of renal brush border membranes” value [1] is reported as “degraded”.
With `CC[C@H](C)[C@@H]1NC(=O)[C@H](CCCNC(=N)N)NC(=O)[C@H](CC(=O)O)NC(=O)[C@H](CCSC)NC(=O)[C@H](CCCNC(=N)N)NC(=O)CNC(=O)CNC(=O)[C@H](Cc2ccccc2)NC(=O)[C@@H](NC(=O)[C@H](CO)NC(=O)[C@H](CO)NC(=O)[C@H](CCCNC(=N)N)NC(=O)[C@H](CCCNC(=N)N)NC(=O)[C@H](CC(C)C)NC(=O)[C@@H](N)CO)CSSC[C@@H](C(=O)N[C@@H](CC(N)=O)C(=O)N[C@@H](CO)C(=O)N[C@@H](Cc2ccccc2)C(=O)N[C@@H](CCCNC(=N)N)C(=O)N[C@@H](Cc2ccc(O)cc2)C(=O)O)NC(=O)CNC(=O)[C@H](CC(C)C)NC(=O)CNC(=O)[C@H](CO)NC(=O)[C@H](CCC(N)=O)NC(=O)[C@H](C)NC(=O)CNC1=O` [SLRR(Met^8)AP-III] the remaining at 1 h, 40 μM (physchem; buffer or solvent) was 100%, the remaining at 1 h, 40 μM (physchem; [5]) was 0% and the “Degradation of atrial peptide by proteolytic activity of renal brush border membranes” value [1] was “degraded”.
For `C[C@H](NC(=O)[C@@H](CC(=O)NO)Cc1ccccc1)C(=O)O` [kelatorphan, [(R)-3-(N-hydroxy)carboxamido-2-benzylpropanoyl]-L-alanine], the “Effect of inhibitor” value [1] was “substantially prolonged or enhanced”.
